The record followed here is EP0525360B1, “Novel phenylacetamide derivatives and processes for the preparation thereof” (KOREA RESEARCH INSTITUTE OF CHEMICAL TECHNOLOGY, priority 1991, dated 1993).

A word on the ED50: it is the dose at which the effect has come halfway, by size or by number of responders. What is called LD50 is the dose at which mortality reaches 50%.

For data set [1], the system named is Male albino rats(120-170g) of the Charles River Sprague-Dawley strain. Briefly: Randall-Selitto test (yeast induced hyperalgesia). The format is in vivo. As to the method:
Randall-Selitto Test was carried out by following the method described in Arch. Int. Pharmacodyn.
Male albino rats(120-170g) of the Charles River Sprague-Dawley strain were used. Inflammation was produced by the injection of 0.1mℓ of a 20% suspension of Brewer's yeast into the plantar surface of the rat's hind foot.
The pain threshold was measured as the pressure in mmHg required to induce the desired response(a sharp audible squeak and/or struggle) when the pressure was applied to the foot. Air pressure from an air line was admitted through a needle valve to a 20mℓ glass syringe and to a pressure gauge which was connected by a T-tube. The syringe was mounted with the plunger downward to which was connected a short bullet-shaped Teflon peg. The pressure was applied to the foot of the rat at the rate of 10 mmHg per second. Drug was given 2 hours after the yeast injection. Two hours after the drug administration, threshold response was determined.
The analgesic activity was determined in terms of the percentage of inhibition of response: Inhibition(%) =(Threshold of the treated group - Threshold of the control group)/(Threshold of the control group)x 100 [formula]

Data set [2] has as its system mice. Put plainly: Tail-flick test (radiant heat). The format is in vivo. As for the experimental part:
Radiant heat was applied using a beam of high-intensity light focused on a tail spot. The response time, defined as the interval between the onset of the stimulus and the tail flick, was measured electronically(to the nearest 0.1 second). The beam intensity was set at a level giving a mean control reaction time of 3.8±0.4 seconds. […] The percentage of inhibition was determined by the following equation: Inhibition(%) =(Reaction time of the treated group - Reaction time of the control group)/(Reaction time of the control group)x 100 [formula]

The test system of data set [3] is Rats(Sprague-Dawley, female). Briefly: Anti-inflammatory test (carrageenin paw edema). The format is in vivo. To be noted: Rattus norvegicus, sc. As for the experimental part:
Rats(Sprague-Dawley, female) weighing 100 to 120g were used. Twenty minutes after the test drug was administered(s. c.), carrageenin was injected(0.1mℓ of 1% solution, s. c.) in the plantar surface of the right hind paw.
The percentage of inhibition was determined by the following equation: Inhibition(%) =(Volume of the carrageenin treated foot - Volume of the control foot)/(Volume of the contol foot)x 100 [formula]

The subject of data set [4] is Rats(Sprague-Dawley). Put plainly: Tail-pinch test in rats with hyperalgesia induced by Freund's adjuvant. The data set is classed as in vivo. As to the method: Rats(Sprague-Dawley) weighing 120g to 170g were used. Desiccated Mycobacterium butyricum(Difco Laboratories, Detroit, MI) was ground in a mortar, suspended in liquid paraffin, sterilized in an autoclave, and injected(0.5mg in 0.1mℓ, s.c.) in the distal region of the tail through a 1-inch 21-gauge needle. […] The hypersensitivity of the tail was examined as follows: the animal was held comfortably in one hand and gentle pressure was applied with the fingers of the opposite hand to the injected area. This gentle squeeze or "tail pinch" elicited a "squeak" from the animal. Five such stimuli were given at 4-second intervals. If the animal emitted no more than one squeak in five trials, it was recorded as having analgesia and given a rating of 1. […] The analgesic activity was determined by the following equation: Analgesic activity =(Total rating)/(Tested aminal number)x 100 [formula] The compound of Example 1, administered two hours before tail-pinch testing perorally, caused a dose related inhibition of adjuvant induced hyperalgesia, as shown in Table 6.

Data set [5] deals with Salmonella typhimurium TA 100. Briefly: mutagenicity test (Maron and Ames). The data set is classed as cell-based. To be noted: 3.2, 16, 80 and 400µg/plate. As to the method:
(§1) The numbers of mutated colonies were not increased at concentrations of 3.2, 16, 80 and 400µg/plate for the test compound.

For data set [6], the system named is Salmonella typhimurium TA98. Briefly: mutagenicity test (Maron and Ames). To be noted: 3.2, 16, 80 and 400µg/plate. The data set is classed as cell-based. As to the method:
as §1

Data set [7] in a line: Use Examples: administration of compositions to human subjects. The format is in vivo. As to the method:
One tablet was administered orally to a patient(weight: 67kg) in need of analgesia two times daily to successfully provide the effect of general analgesia.
The compound of Example 5 was dissolved in sesame oil with the aid of sonication and was packaged in soft gelatin capsules using the common methods known in the art.
The above ingredients were mixed to produce a syrup which was packaged under a sterile condition in 6 oz. bottles. One teaspoon of this formulation was administrated to a 70kg adult, reducing inflammation and producing analgesia.
The compound of Example 1 was dissolved in a solution containing the other ingredients.

Data set [8] is described as follows: acute toxicity test. To be noted: mouse, in vivo, po, per os, 5 weeks old, observed for 14 days.
Data set [9] relates to mice. Put plainly: Hot-plate test. To be noted: p. o. The data set is classed as in vivo. As for the experimental part:
Mice were placed on an aluminum plate maintained at 55± 0.5°C by a thermo-regulator(Harvard). A glass cylinder, 15cm in height and 15cm in diameter, served to confine the mice to the heated plate. Blowing of the fore paws was used as the end-point for determination of response latency(measured to the neatest 0.1 second).
Background: In hot-plate and tail-flick tests a longer latency is read as antinociception.

In data set [10] the test system is Rats(Sprague-Dawley, female). Put plainly: Local anti-inflammatory test (transdermal, carrageenin paw edema). To be noted: for Double Dose(24 hr), percentage of inhibition: transdermal double dose (second application 7 hours later), edema measured 24 hours later; for Single Dose(1 hr), percentage of inhibition: transdermal single dose, edema measured 1 hour later. The format is in vivo. As to the method:
Rats(Sprague-Dawley, female) weighing 100 to 120g were used. 20 minutes after the test drug was administered transdermally (another application 7 hours later for double dose experiment), carrageenin was injected(0.1ml of 1% solution, s. c.) into the plantar surface of the right hind paw. The volume of the edema was measured with a volumeter either 1 hour later for […] dose experiment or 24 hours later for double dose experiment; and the percentage of inhibition was measured by the same equation as used in Anti-inflammatory Test.
In general terms: The carrageenan paw model is a standard test of acute inflammation.

Data set [11] relates to KTC-ICR mice. Briefly: acetic acid induced writhing test. To be noted: Mus musculus; oral; 0.9% acetic acid i.p. 60 minutes later; writhings during 10 minutes; mice 20 to 25g; Examples 1 to 32. The data set is classed as in vivo. As for the experimental part:
The KTC-ICR mice derived from Charles River Breeding Laboratory in the United States and provided by Experimental Animal Laboratory of Korea Research Institute of Chemical Technology were used as test animals. […] They were tested after having been adjusted to the testing environment for a week. Food and water were given freely; and illumination was maintained on a 12-hour cycle.
Experiments were performed in two ways: that is, the acetic acid induced writhing test and the phenyl-1,4-benzoquinone(PBQ) induced writhing test.
Solutions for the acetic acid induced writhing test were prepared by dissolving one of the end products prepared in Examples […] in a saline solution containing 1% by weight of Tween 80 to have a concentration of 5mg/mℓ and diluting it serially with the saline solution. The test solutions were administered orally in a dose of 0.3mℓ per 30g of body weight, using the 5 ICR mice for each test. 60 minutes later, 0.9% acetic acid solution was administered intraperitoneally in a dose of 0.1mℓ per 30g of body weight. 3 minutes thereafter, the number of writhings generated during a period of 10 minutes due to the administration of acetic acid was measured. For comparison purpose, initially, saline solution alone was administered orally to the control group. 60 minutes thereafter, 0.9% acetic acid solution was administered intraperitoneally to the control group.
The number of writhings suffered by the test group was compared with that of the control group; and the analgesic effect was measured in terms of the percentage of inhibition of writhing(I. W.). I. W. (%) =(A - B)/(A)x 100 [formula] A : the number of writhings suffered by the control group, B : the number of writhings suffered by the test group.
These ED50 values for the test compounds are shown in the last column of Table 1.

Where [12] appears, read: dose 5 mg/Kg, 7 rats, Example 1 perorally two hours before testing.
The mark [13] stands for this setting: s. c., twenty minutes before carrageenin, edema volume 3 hours later, read-out: ED50.
Setting [14] is: 5 ICR female mice, read-out: LD50(female).
Where [15] appears, read: 5 ICR male mice, read-out: LD50(male).

Structures can show the parent of a compound that is named as a salt. Where two headings read alike, the source gives them in different places. A value given as a limit tells only on which side of the number the result lay.

Take `CC(=O)Oc1ccccc1C(=O)O` [Aspirin]: the “Inhibition(%)” value in data set [1] (dose 100 mg/Kg s. c., 10 rats, pain threshold vs yeast-treated saline control) is listed as 80.1%; in data set [2] (p. o., dose 100 mg/Kg), 0%. The same molecule yielded a 50% effective dose (ED50) in data set [3] (3 h) of 109 mg/kg.

In the case of `COc1cc(CC(=O)NCCCc2ccc(C)c(C)c2)ccc1OCCN` [Example 1, N-{3-(3,4-dimethylphenyl)propyl}-4-(2-aminoethoxy)-3-methoxyphenylacetamide], the “Inhibition(%)” value in [1] (dose 5 mg/Kg p. o., 5 rats) stood at 247.4%; in [2] (p. o., dose 1.25 mg/Kg), 10%; in [2] (p. o., dose 2.5 mg/Kg), 60%; in data set [2] (p. o., dose 5.0 mg/Kg), 80%; in data set [2] (p. o., dose 7.5 mg/Kg), 90%; in data set [2] (s. c., dose 0.5 mg/Kg) it was 50%. The “Inhibition(%)” value in [2] (s. c., dose 1.0 mg/Kg) is reported as 70%; in data set [9] (dose 2.5 mg/Kg), 28.6%; in [9] (dose 5.0 mg/Kg), 48.9%; in [9] (dose 10.0 mg/Kg), 97.0%. The “Analgesic activity(%)” value is given as 45.9% in [4] (setting [12]) and 66.7% in data set [4] (dose 10 mg/Kg, 6 rats, perorally two hours before testing). Besides, the 50% effective dose (ED50) came to 4 mg/kg in data set [3] (setting [13]) and 0.08 mg/kg in data set [11]. Moreover, the “numbers of mutated colonies” value in data set [5] and in data set [6] was “not increased” throughout. In addition, the “local analgesia after topical application” value in data set [7] (Use Example 5 liquid (4g in glycerol/water), 0.4mℓ on 80cm^2 of the forearm, 60kg male adult) was “local analgesia which lasted for two days”. Also, the “skin irritation after topical application” value in data set [7] (Use Example 5 liquid, 0.4mℓ on 80cm^2 of the forearm, 60kg male adult) was “Little or no skin irritation was observed”. In addition, the LD50 at 336 h in data set [8] (setting [14]) came out at 364 mg/kg; in [8] (setting [15]), 224 mg/kg. Also, the “Double Dose(24 hr), percentage of inhibition” value in [10] turned out to be 32%. In addition, the “Single Dose(1 hr), percentage of inhibition” value in [10] came out at 66%.

On to `COc1cc(CC(=O)NCCCc2ccc(C)c(C)c2)ccc1OCCN` [Example 1-HCl], for which the “Inhibition(%)” value in data set [1] (dose 1.5 mg/Kg s. c., 8 rats) stood at 248.3%.

With `COc1cc(CC(=O)NCCCc2cccc(C)c2)ccc1OCCN` [Example 5], the values for the 50% effective dose (ED50) in data set [3] (setting [13]) and in [11] were 16.9 mg/kg and 0.07 mg/kg, respectively. For the same molecule, in [7] (Use Example 2 soft gelatin capsules in sesame oil, two capsules, each 27mg of the composition, 63Kg person), the “analgesic and anti-inflammatory effect in a human subject” value was “producing the effects of analgesia and reducing inflammation”. The LD50 at 336 h in data set [8] (setting [14]) and in [8] (setting [15]) was 125 mg/kg in each case.

For the molecule `Cc1cc(C)cc(CCCNC(=O)Cc2ccc(OCCN)c(F)c2)c1` [Example 15], the median lethal dose (LD50) at 336 h in data set [8] (setting [14]) and in data set [8] (setting [15]) was over 2000 mg/kg in each case. Also, the ED50 in data set [11] turned out to be 0.02 mg/kg.

`CC(C(=O)O)c1cccc(C(=O)c2ccccc2)c1` (stereo not shown) [Ketoprofen]: the 50% effective dose (ED50) in [3] (3 h) is 7.2 mg/kg.

On to `CN1CC[C@]23c4c5ccc(O)c4O[C@H]2[C@@H](O)C=C[C@H]3[C@H]1C5` [Morphine], for which, in [1] (rat, in vivo, 3 mg/kg), the “Inhibition(%)” value came to 391.7%.

As to `COc1ccc2cc([C@H](C)C(=O)O)ccc2c1` [Naproxen, reference compound], the “Analgesic activity(%)” value in [4] (setting [12]) turned out to be 28.6%. For the same molecule, the median effective dose (ED50) in data set [3] (setting [13]) was 43 mg/kg. Also, in data set [10], the “Double Dose(24 hr), percentage of inhibition” value was determined as 25% and the “Single Dose(1 hr), percentage of inhibition” value was determined as 54%.
